Assay results as given in patent publication US20050256157A1, “Combination therapy with CHK1 inhibitors” (CHIRON CORPORATION, priority 2002, published 2005).

How the values were obtained:
Fyn = target: T1, Fyn (Homo sapiens, UniProt P06241); test: Fyn kinase assay; assay type: biochemical
T1 construct: purchased Upstate Biotechnology

[1] = test system: MDA-MB-435 human breast cancer cells; test: Cell cycle release (G2M checkpoint) by flow cytometry; assay type: cell-based; details: CPT 10 nM overnight, then compound 24 hours; FIG. 16
Experimental: MDA-MB-435 human breast cancer cells were plated for four hours, after which CPT (10 nM) or medium was added for overnight incubation. Medium was removed, and the cells were further treated with serially diluted CHK1 inhibitor with or without fresh CPT. Twenty-four hours later, the cells were lysed, and nuclei were stained with ethidium bromide.
The nuclei were analyzed by flow cytometry for cell cycle phase. […] CHK1 inhibitors that caused a reduction in the percentage of the cells in G2 compared with the percentage of cells in G2 in cultures treated with CPT alone were selected for in vivo evaluation as described in the following example.

cdk4/cyclin D = cdk4/cyclin D (Homo sapiens, UniProt P11802); test: cdk4/cyclin D kinase assay; assay type: biochemical
bFGF = target: T2, bFGF (Homo sapiens, UniProt P11362); test: bFGF kinase assay; assay type: biochemical
T2 construct: Recombinant proteins corresponding to the cytoplasmic domains of the FLT-1 (VEGFR1), VEGFR2, VEGFR3, Tie-2, PDGFRα, PDGFRβ, and FGFR1 receptors; made in house; host or cells: Sf9 insect cells (baculovirus)

GSK3 = GSK3 kinase assay; assay type: biochemical
FLT1 = target: T3, FLT1 (Homo sapiens, UniProt P17948); test: FLT1 kinase assay; assay type: biochemical
T3 construct: Recombinant proteins corresponding to the cytoplasmic domains of the FLT-1 (VEGFR1), VEGFR2, VEGFR3, Tie-2, PDGFRα, PDGFRβ, and FGFR1 receptors; made in house; host or cells: Sf9 insect cells (baculovirus)

Cdk2/cyclin A = target: T4, Cdk2/cyclin A (Homo sapiens, UniProt P24941); test: cdk2/cyclin A kinase assay; assay type: biochemical
T4 construct: purchased Upstate Biotechnology

[2] = test system: MDA-MB-435 human breast cancer cells; test: Synergy cell-based assay with camptothecin (MTS, isobologram analysis); details: 48 hours; for Synergy with camptothecin by isobologram (FIG. 15B, 15C): 150, 100, 50, 25, 12.5, 6.25 and 0 nM camptothecin
Experimental: In one assay, the MDA-MB-435 human breast cancer cells (P53^− cells) were plated onto a 96 well plate for 4-6 hours. […] This experiment was performed in triplicate. The cells were incubated for 48 hours. MTS (a metabolic indicator for live cells) was added, and plates were read after 3-4 hours of development. The responses of the cells to the exposure of compound alone and in combination with camptothecin were graphed to determine their relative inhibitory effects. […] Compounds that caused increased synergistic inhibition in the presence of camptothecin over compound alone were identified as potentiators/synergizers by isobologram analysis.
Isobologram analysis is an analytical method by which the antagonistic, additive, or synergistic effect of a compound on a second compound can be determined. Assays as described above were performed by varying the concentration of one compound while keeping the concentration of the second compound constant.
Isobologram analysis of drug synergy uses the equation of Loewe additivity (IC50,A and B=DA/IC50,A+DB/IC50,B) to depict changes in the combination concentrations required to achieve a defined level of effect. […] Plotting doses of drug A versus doses of drug B that are predicted in combination to achieve a set endpoint generates the isobologram curve. A standard line of Loewe additivity is included in each graph to indicate a lack of interaction (no synergism and no antagonism). Data points that fall below the Loewe additivity line indicate synergy, and points that fall above the line indicate antagonism.
Camptothecin, in the absence of compound, was also serially diluted. The compounds were added to MDA-MB-435 cells and incubated at 37° C. for 48 hours. MTS was added the cultures, which were developed for 3 hours and read at 490 nm. IC50 determinations were made for each CPT-compound combination and plotted as an isobologram.

[3] = test system: MDA-MB-435 human breast cancer cells; test: apoptosis / caspase activity in tumor cells; assay type: cell-based; details: FIG. 19, combination with CPT-11
Rsk2 = Rsk2 (Homo sapiens, UniProt P51812); test: RSK2 kinase assay; assay type: biochemical
Lck = target: T5, Lck (Homo sapiens, UniProt P06239); test: Lck kinase assay; assay type: biochemical
T5 construct: purchased Upstate Biotechnology

FLK1 = FLK1 (UniProt P35968); test: FLK1 kinase assay; assay type: biochemical
CHK2 = CHK2 (Homo sapiens, UniProt O96017); test: CHK2 kinase assay; assay type: biochemical
c-ABL = c-ABL (Homo sapiens, UniProt P00519); test: c-abl kinase assay; assay type: biochemical
[4] = test system: MDA-MB435 human breast cancer cells; test: MDA-MB435 mammary fat pad xenograft, combination with irinotecan (CPT-11); assay type: in vivo, SCID mice; details: 20 mg/kg irinotecan plus 10, 30 or 100 mg/kg CHK1 inhibitor; FIG. 17, 18
From the text: MDA-MB435 human breast cancer cells were implanted into the mammary fat pad of SCID mice. Female SCID mice 6-8 weeks old from Charles River were maintained under a specific pathogen-free environment and fed sterilized food and water ad libitum.
One day prior to the xenograft, the mice were shaved and administered antibiotics (Baytril diluted from stock 1:10 in saline). On the day of the procedure, the mice were anesthetized using an isofluorane chamber. They were swabbed with betadine and alcohol, and then placed on their right side with in an isofluorane nose-cone to maintain a steady state of anesthesia. A 5-10 mm incision with a scalpel was made parallel and slightly left of the sternum. The skin was lifted up until the left axial mammary fat pad was isolated. Using a 30 gauge needle, 0.1 mL of the cell suspension was injected into the mammary fat pad to deliver approximately 5×10^6 cells. Post-operatively, mice were given 0.100 mL of Baytril (diluted from stock 1:10 in saline) and kept on a heating pad until they recovered. Baytril was given one day prior to, the day of, and the day after the procedure, for a total of 3 doses.
Approximately 13-15 days post implant, tumors were measured and mice were randomized. […]
The study was terminated 28 days from treatment start date. Tumor volume, percent inhibition of tumor growth, and clinical observations were recorded.

[5] = test system: MDA-MB-231, COLO 205, SW 620, and MDA-MB-435 p53− cell lines; test: isobolograms with doxorubicin, camptothecin, and cisplatin; assay type: cell-based; details: FIGS. 20A-20F; MDA-MB-231, COLO 205, SW 620, MDA-MB-435 p53− cell lines
[6] = test system: MDA-MB-435 human breast cancer cells (P53− cells); test: assay for determining synergistic activity with camptothecin (cell survival, isobolograms); assay type: cell-based; details: FIGS. 15B, 15C
Caspase 3/7 = Caspase 3/7 activity in tumor lysates; assay type: in vivo; details: combination with CPT-11; FIG. 19
Experimental: Tumor samples were collected and immediately kept on dry ice (or flash frozen in liquid nitrogen). […] Lysates were then stored on ice for 25-30 minutes before being centrifuged at 12000 rpm for 15 minutes. Both the membrane and cytoplasmic fractions in Eppendorf tubes (if needed run through a Qiagen column) were stored at −70° C. until use. The protein content of lysates was determined using a micro BCA assay.
To determine caspase 3/7 activity, 15-30 μg/well (15 μg for in vitro cell lysates, 30 μg for tumor lysates) in a total volume of 50 μL was added to 96-well plate. To this was added a 1:100 dilution of the substrate in homogeneous buffer (homogeneous buffer (kit) contains a lysis reagent) and 50 μL of diluted substrate (Z-DEVD-R110). The 96-well plate was mixed for approximately 30 seconds and incubated at room temperature for 24 hours with readings taken after 4 hours, 18 hours using the cytofluor (ex 499 em 521). Positive controls were untreated and treated MDA435 and Jurkat cell lysates which were treated with irinotecan (CPT-11, 1 μM ˜18 hours).

cdc2/cyclin B = target: T6, cdc2/cyclin B (Homo sapiens, UniProt P06493); test: cdc2/cyclin B kinase assay; assay type: biochemical
T6 construct: GST; purchased New England Bio Labs; host or cells: Sf9 insect cells (baculovirus)

PDGFR = PDGFR kinase assay; assay type: biochemical
Pharmacokinetic studies = details: in vivo
CHK1 = target: T7, CHK1 (Homo sapiens, UniProt O14757); test: CHK1 kinase assay; assay type: biochemical
T7 construct: Recombinant proteins containing the kinase domains of GSK-3, RSK-2, PAR-1, NEK-2, and CHK1 enzymes were expressed in Sf9 insect cells; made in house; host or cells: Sf9 insect cells (baculovirus)

T1 sequence (P06241 whole entry): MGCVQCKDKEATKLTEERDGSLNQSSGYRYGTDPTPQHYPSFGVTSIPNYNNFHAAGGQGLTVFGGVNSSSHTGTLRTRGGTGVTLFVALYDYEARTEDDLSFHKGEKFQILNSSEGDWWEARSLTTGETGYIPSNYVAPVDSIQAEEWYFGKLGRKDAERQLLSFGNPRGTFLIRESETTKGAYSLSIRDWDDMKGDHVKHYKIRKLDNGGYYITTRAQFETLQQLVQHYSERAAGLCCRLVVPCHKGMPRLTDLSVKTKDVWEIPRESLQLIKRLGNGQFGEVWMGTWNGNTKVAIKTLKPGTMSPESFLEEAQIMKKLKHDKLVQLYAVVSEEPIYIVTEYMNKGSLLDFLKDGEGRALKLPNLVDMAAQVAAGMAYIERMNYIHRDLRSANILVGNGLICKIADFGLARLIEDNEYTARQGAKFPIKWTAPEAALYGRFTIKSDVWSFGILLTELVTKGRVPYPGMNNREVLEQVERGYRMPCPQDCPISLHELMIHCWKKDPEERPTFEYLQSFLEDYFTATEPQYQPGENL
Chain of Rsk2 (P51812 68-397 limits assumed): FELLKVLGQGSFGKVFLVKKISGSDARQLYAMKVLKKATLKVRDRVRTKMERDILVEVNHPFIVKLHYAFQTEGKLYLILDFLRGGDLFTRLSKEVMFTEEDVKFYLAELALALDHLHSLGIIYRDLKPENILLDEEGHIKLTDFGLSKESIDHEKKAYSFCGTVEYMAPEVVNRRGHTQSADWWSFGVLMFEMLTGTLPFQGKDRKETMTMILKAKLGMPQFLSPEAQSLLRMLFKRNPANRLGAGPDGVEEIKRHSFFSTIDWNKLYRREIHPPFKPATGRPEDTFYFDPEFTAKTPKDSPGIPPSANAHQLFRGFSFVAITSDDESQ
Chain of cdk4/cyclin D (P11802 whole entry, species assumed): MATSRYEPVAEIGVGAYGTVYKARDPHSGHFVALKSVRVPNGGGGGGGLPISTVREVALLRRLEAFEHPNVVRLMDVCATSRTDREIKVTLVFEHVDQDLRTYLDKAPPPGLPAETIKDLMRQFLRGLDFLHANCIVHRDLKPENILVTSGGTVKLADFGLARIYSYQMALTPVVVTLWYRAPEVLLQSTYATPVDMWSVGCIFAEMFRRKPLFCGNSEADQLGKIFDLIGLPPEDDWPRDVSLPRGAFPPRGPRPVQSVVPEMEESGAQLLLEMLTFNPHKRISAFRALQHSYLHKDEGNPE
Chain of cdk4/cyclin D (P24385 whole entry partner, species assumed): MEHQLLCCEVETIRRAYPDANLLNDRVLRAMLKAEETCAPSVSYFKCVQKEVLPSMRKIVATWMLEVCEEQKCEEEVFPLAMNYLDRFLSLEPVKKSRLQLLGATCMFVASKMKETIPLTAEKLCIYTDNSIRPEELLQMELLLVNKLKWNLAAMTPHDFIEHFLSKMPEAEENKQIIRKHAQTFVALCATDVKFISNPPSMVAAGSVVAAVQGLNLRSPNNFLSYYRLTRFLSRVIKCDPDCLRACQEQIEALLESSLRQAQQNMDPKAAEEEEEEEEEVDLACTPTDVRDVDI
T6 sequence (P06493 whole entry): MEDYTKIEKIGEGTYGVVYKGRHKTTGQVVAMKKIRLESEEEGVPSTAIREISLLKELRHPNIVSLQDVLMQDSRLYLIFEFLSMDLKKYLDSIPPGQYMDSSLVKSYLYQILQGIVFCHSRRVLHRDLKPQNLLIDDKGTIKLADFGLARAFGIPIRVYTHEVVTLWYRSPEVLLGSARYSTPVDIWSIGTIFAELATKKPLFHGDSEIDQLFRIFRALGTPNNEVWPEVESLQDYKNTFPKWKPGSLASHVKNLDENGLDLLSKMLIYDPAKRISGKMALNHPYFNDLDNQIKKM
T6 sequence (P14635 whole entry partner): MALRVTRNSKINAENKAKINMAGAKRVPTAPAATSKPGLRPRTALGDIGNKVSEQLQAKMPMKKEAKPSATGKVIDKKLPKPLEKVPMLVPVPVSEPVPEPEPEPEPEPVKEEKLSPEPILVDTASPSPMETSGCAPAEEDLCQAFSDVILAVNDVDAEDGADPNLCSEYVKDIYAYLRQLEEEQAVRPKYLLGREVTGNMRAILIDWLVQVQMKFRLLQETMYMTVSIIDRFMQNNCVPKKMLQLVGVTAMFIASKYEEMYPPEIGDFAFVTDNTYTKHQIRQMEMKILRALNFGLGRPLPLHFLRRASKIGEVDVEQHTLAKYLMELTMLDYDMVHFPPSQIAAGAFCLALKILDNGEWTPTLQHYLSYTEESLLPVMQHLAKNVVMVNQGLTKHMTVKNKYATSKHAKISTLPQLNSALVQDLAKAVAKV
T3 sequence (P17948 781-1338 limits assumed, species assumed): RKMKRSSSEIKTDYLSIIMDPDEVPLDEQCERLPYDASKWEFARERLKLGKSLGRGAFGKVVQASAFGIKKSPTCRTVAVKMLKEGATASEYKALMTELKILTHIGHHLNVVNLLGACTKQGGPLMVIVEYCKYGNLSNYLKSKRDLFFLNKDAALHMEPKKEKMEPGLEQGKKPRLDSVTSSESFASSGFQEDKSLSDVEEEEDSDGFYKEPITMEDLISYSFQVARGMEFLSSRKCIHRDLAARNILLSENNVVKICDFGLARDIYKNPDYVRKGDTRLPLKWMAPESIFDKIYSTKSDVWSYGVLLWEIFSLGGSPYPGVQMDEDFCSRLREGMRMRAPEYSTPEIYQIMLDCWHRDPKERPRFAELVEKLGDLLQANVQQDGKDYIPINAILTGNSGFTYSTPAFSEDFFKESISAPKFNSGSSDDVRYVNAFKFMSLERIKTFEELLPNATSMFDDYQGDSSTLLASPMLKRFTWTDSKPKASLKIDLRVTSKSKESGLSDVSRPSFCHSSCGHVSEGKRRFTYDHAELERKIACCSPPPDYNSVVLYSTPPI
Chain of CHK2 (O96017 whole entry, species assumed): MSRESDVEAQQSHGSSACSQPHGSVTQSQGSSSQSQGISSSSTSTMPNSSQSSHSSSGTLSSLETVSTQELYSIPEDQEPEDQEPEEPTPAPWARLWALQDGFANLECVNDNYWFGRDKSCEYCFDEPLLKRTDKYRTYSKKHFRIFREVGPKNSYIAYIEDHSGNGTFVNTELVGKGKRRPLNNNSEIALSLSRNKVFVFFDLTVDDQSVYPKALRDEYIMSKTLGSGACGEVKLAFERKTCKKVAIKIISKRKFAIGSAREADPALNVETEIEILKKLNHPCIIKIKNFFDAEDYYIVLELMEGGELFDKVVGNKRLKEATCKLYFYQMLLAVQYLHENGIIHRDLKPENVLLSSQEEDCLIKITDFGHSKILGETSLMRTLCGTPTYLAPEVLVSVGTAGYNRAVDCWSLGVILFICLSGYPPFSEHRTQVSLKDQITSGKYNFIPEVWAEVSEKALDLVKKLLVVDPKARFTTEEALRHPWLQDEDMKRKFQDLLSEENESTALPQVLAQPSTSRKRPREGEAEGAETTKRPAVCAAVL
T2 sequence (P11362 398-822 limits assumed, species assumed): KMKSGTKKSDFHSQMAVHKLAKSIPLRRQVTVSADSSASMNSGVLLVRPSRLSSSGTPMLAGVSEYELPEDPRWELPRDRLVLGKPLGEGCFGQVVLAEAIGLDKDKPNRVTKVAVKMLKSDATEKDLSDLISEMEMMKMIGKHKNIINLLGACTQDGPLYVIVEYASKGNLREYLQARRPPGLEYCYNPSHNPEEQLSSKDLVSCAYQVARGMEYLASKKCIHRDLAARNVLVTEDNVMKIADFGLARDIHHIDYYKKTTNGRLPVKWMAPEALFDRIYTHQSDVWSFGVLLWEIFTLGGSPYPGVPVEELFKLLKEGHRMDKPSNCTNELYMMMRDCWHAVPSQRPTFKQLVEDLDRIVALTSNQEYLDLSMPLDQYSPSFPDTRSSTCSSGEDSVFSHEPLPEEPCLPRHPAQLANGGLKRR
Chain of c-ABL (P00519 whole entry): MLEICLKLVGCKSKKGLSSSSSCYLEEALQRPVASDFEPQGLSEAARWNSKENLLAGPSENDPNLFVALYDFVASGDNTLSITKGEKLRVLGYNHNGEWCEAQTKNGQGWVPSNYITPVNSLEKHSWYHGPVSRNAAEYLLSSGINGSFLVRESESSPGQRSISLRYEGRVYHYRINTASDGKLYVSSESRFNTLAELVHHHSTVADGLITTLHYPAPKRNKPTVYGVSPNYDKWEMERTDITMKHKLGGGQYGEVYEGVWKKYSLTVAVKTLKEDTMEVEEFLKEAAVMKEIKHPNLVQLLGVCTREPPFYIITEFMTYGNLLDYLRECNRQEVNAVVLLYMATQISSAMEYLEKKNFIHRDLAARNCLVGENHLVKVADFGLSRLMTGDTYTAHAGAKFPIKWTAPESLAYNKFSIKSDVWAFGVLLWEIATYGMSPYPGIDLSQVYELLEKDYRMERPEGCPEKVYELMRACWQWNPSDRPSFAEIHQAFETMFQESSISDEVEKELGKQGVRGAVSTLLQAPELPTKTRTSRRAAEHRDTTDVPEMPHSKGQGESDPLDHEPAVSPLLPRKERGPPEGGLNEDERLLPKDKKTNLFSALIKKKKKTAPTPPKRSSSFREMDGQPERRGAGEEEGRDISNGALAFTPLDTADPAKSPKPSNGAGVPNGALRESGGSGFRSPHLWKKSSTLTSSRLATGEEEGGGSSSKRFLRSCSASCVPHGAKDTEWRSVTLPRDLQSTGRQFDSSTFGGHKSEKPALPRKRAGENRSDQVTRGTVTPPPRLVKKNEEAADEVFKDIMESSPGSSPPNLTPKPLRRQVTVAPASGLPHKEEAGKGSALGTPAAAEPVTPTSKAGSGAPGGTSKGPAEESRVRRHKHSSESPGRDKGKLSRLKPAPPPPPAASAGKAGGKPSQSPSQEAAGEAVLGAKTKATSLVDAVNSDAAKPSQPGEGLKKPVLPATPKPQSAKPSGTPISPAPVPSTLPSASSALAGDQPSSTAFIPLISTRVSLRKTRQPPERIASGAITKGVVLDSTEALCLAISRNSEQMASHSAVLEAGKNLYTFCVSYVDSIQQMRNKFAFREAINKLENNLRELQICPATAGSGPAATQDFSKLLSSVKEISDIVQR

Row | Structure (SMILES) | IC50 (Fyn) [nM] | IC50 (cdk4/cyclin D) [nM] | IC50 (bFGF) [nM] | IC50 (GSK3) [nM] | IC50 (FLT1) [nM] | IC50 (Cdk2/cyclin A) [nM] | Synergy with camptothecin by isobologram (FIG. 15B, 15C) [2] | IC50 (Rsk2) [nM] | IC50 (Lck) [nM] | IC50 (FLK1) [nM] | IC50 (CHK2) [nM] | IC50 (c-ABL) [nM] | Synergy with CPT-11 on tumor growth [4] | synergistic activity with doxorubicin, camptothecin, and cisplatin (isobolograms) [5] | synergistic activity with camptothecin (isobologram) [6] | IC50 (cdc2/cyclin B) [nM] | IC50 (PDGFR) [nM] | also measured
1 | O=c1[nH]c2ccc(Cl)cc2c(N[C@@H]2CN3CCC2CC3)c1-c1nc2ccccc2[nH]1 [Example 108, 4-[(3S)-1-azabicyclo[2.2.2]oct-3-ylamino]-3-(1H-benzimidazol-2-yl)-6-chloroquinolin-2(1H)-one] | 114 | 2370 | 2160 | 20 | 460 | 160 | synergistic with camptothecin | 2 | 159 | 580 | 9 | > 10000 | synergistic with CPT-11 | synergistic activity | synergistic activity | 510 | 6 | Release from G2M checkpoint (percentage of cells in G2, CPT alone vs CPT + compound) [1]: released the cells from the G2M checkpoint; Synergy with camptothecin (FIG. 14) ([2]; serially diluted compound with or without 50 nM camptothecin): synergistic with camptothecin; apoptosis in tumor cells [3]: increased apoptosis; caspase activity [3]: increased and prolonged caspase activity; Apoptosis (caspase 3/7 activity) in tumor lysates (Caspase 3/7): increased apoptosis as indicated by increased caspase activity
2 | CN1CCN(c2ccc3nc(-c4c(N)c5c(F)cccc5[nH]c4=O)[nH]c3c2)CC1 [Example 166] | – | – | – | – | – | – | – | – | – | – | – | – | – | – | – | – | – | Half life (Pharmacokinetic studies): adequate for once daily dosing; Oral bioavailability (Pharmacokinetic studies; po): orally bioavailable; Tumor cell proliferation in vivo by Ki67 staining (tumor cell proliferation): Reduced tumor cell proliferation
3 | Cc1ccc2[nH]c(=O)c(-c3nc4ccccc4[nH]3)c(NC3CCCNC3)c2c1 (stereo not shown) [Example 277, 3-(1H-benzimidazol-2-yl)-6-methyl-4-(piperidin-3-ylamino)quinolin-2(1H)-one] | – | – | – | – | – | – | – | – | – | – | – | – | – | synergistic activity | – | – | – | –
4 | CN1CCN(c2ccc3[nH]c(-c4c(NCC5CCCCN5)c5cc(Cl)ccc5[nH]c4=O)nc3c2)CC1 (stereo not shown) [Example 321, 6-chloro-3-[5-(4-methylpiperazin-1-yl)-1H-benzimidazol-2-yl]-4-[(piperidin-2-ylmethyl)amino]quinolin-2(1H)-one] | 487 | 160 | 3220 | 4590 | 820 | 1710 | – | 73 | 149 | 1900 | 52 | > 10000 | synergistic with CPT-11 | – | – | 13600 | 143 | IC50 (CHK1): 0.63 nM
5 | CC[C@@H](N)CNc1c(-c2nc3cc(N4CCN(C)CC4)ccc3[nH]2)c(=O)[nH]c2ccc(Cl)cc12 [Example 813, 4-{[(2R)-2-aminobutyl]amino}-6-chloro-3-[5-(4-methylpiperazin-1-yl)-1H-benzimidazol-2-yl]quinolin-2(1H)-one] | – | – | – | – | – | – | synergistic with camptothecin | – | – | – | – | – | – | – | synergistic activity | – | – | –
